{
  "source": "patent US20260317356A1",
  "about": "“SMALL MOLECULE MODULATORS OF OGG1” (AZKARRA THERAPEUTICS, INC., priority 2023, published 2026)",
  "key": {"hOGG1 [1]": {"target": "T1, hOGG1 (Homo sapiens, UniProt O15527)", "T1 sequence (O15527 12-323)": "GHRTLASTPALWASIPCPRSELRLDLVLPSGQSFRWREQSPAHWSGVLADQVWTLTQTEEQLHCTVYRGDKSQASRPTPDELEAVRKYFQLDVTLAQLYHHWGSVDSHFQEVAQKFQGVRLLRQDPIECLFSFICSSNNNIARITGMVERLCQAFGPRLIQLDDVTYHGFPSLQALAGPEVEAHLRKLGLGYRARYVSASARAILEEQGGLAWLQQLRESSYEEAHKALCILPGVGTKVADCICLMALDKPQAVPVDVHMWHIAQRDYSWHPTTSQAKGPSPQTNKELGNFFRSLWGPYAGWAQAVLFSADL", "test": "Surface Plasma Resonance with hOGG1 to measure compound affinity (OGG1 SPR Kd)", "type": "binding", "parameters": "Protein His-hOGG1 (12-323) was prepared", "details": "Biacore T-200, immobilized his-tagged OGG1; pH 7.4; 2% DMSO; single-cycle kinetics", "description": "Surface Plasma Resonance with hOGG1 to Measure Compound Affinity (OGG1 SPR Kd); All the SPR studies were performed on a Biacore T-200 instrument (Cytiva life sciences) using series S NTA sensor chip (cat #BR-1005-32, Cytiva life sciences). Recombinant his-tagged OGG1 (mol. wt. 36003; ChemPartner, Shanghai, China) was immobilized on NTA sensor chip via Ni^2+/NTA chelation using NTA reagent kit (Cytiva life sciences; cat #289950) as per manufacturer's recommended protocol. The running buffer during immobilization contained HEPES (20 mM, pH 7.4), 150 mM NaCl, 0.5 mM TCEP (tris(2-carboxyethyl)phosphine), and 0.005% Tween-20. NTA sensor chip (experimental cell) was first conditioned by injecting regeneration solution (350 mM EDTA, flow rate 30 μL/min, 2 injections 60 each). Additional wash with 50 mM NaOH was used whenever the chip was regenerated (flow rate 30 μL/min, 1 injection of 60 s). The sensor chip was then activated with 0.5 mM NiCl2 (flow rate 10 μL/min, 2 injection of 60 s, leading to a baseline increase of ~40 RU), and the excess Ni^2+ was removed using immobilization buffer containing 3 mM EDTA (flow rate 10 μL/min, 1 injection of 60 s). Finally, OGG1 (diluted to 6.2 μg/mL in running buffer) was injected on the activated sensor chip at a flow rate of 10 μL/min until immobilization level reached ~6000 RU. Any loosely bound protein was removed by passing the immobilization buffer overnight at 20 μL/min. At this point, the drift in baseline was ~0.01 RU/s and the final immobilization level was ~2500 RU. Reference cell was left untreated. SPR binding experiments were performed using binding buffer (20 mM HEPES (pH 7.4), 150 mM NaCl, 0.5 mM TCEP, 0.005% Tween-20, and 2% DMSO) at a flow rate of 30 μL/min. Single-cycle kinetics approach was used for binding analysis which consisted of sequential injections of increasing concentrations of test compound (a 3-fold serial dilution with 5 concentrations; highest 750 or 1500 nM; with final DMSO concentration at 2%) over the immobilized protein without regeneration step between each sample injection. Each injection was 45 seconds long (contact time), followed by a final dissociation of 600 sec. The Biacore T-200 Evaluation software 3.1 (GE Healthcare) was used to determine kinetic parameters from SPR data. All the reported sensograms were reference subtracted and corrected for refractive index contributions from solvent using 8-point solvent correction (1.4 to 2.8% DMSO in binding buffer). Data were fit to both steady state and 1:1 kinetic model to obtain Kon, Koff and binding affinity (Kd)."}, "nLucOGG1 in HeLa cells": {"target": "T2, nLucOGG1 in HeLa cells (Homo sapiens, UniProt O15527)", "T2 construct": "thermal shift read by NanoGlo luminescence", "T2 sequence (O15527 whole entry)": "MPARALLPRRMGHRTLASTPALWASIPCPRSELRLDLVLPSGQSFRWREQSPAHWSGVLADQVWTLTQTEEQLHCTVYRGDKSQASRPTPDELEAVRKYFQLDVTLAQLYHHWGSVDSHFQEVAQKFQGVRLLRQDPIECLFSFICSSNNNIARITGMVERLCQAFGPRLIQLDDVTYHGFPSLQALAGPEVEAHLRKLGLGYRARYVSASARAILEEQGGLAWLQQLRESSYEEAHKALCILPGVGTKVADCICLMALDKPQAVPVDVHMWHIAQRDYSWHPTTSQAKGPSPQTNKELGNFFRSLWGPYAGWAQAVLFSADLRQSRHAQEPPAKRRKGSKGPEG", "test": "Cellular Thermal Shift Assay to measure compound affinity for nLucOGG1 in HeLa cells (CETSA DTm)", "type": "cell-based", "details": "10 μM compound, 37° C. 60 min, Tm vs DMSO control", "description": "Biological Example 2: Cellular Thermal Shift Assay to Measure Compound Affinity for ^nLucOGG1 in HeLa Cells (CETSA DTm)\nCell Culture and Transfection of Hela Cells with ^nLucOGG1: For all tests, Hela cells were maintained in growth medium, Dulbecco's Minimum Eagle Medium (Multicell: Cat #319-005-CL) supplemented with 10% heat-inactivated fetal bovine serum (Gibco: Cat #12484-028) at 37° C. and 5% CO2 in a humidified tissue culture incubator. Transient transfections were performed using the Lonza 4-D Nucleofector X unit according to the manufacturer's protocol (Lonza Cat #V4XC-1024). Briefly, for each transfection, 1.2×10^6 cells were centrifuged at 1000 RPM for 5 minutes at room temperature before being diluted in 100 μL SE solution containing 18% v/v supplement and 1.5 μg pNF1-N-empty or pNF1-N-OGG1a vector. The total volume was transferred to a 100 μL nucleofection cuvette prior to transfer to the apparatus where HeLa cell nucleofection protocol CN-114 was executed. Following nucleofection, 500 μL complete media was added to the cells in the cuvette before transferring to a 6-well dish containing 1.5 mL of complete media. Cells were left to incubate for 48 hours before performing all cellular thermal shift experiments.\nCellular Thermal Shift Assays for Target Engagement (CETSA): Forty-eight hours following nucleofection, cells were washed once with DPBS−/−(Multicell: Cat #311-425-CL) and lifted with 0.25% Trypsin-EDTA (Multicell: Cat #325-043-CL) prior to dilution in growth medium and centrifugation at 1000 RPM for 5 minutes at room temperature. The resulting cell pellet was then resuspended in growth medium, cells were counted and the volume adjusted to 500 k cells/mL (2×).\nFor delta Tm determination, OGG1 inhibitor compounds were dissolved in DMSO to a final working concentration of 20 mM. Working solutions were then diluted in complete media to 20 μM or 0.1% DMSO for the vehicle control (2×). 2×OGG1 inhibitor compound solutions or 0.1% DMSO control were then pre-dispensed into MicroAmp Optical 96-well PCR reaction plates (Applied Biosystems: Cat #4346906) at 50 μL/well. Next, 50 μL or 25 k cells/well from the 2× cell suspension was added to the pre-loaded PCR plates. All plates were prepared as duplicates, covered with adhesive plate sealers (Perkin Elmer: Cat #6050185) and left to incubate at 37° C. for 60 minutes. During incubation, sufficient NanoGlo luciferase assay reagents (Promega: Cat #N1120) were left to equilibrate to room temperature in the dark. Immediately before heating the plates, the NanoGlo substrate was mixed with the NanoGlo buffer at a 1:50 ratio. The thermal cycler (Veriti 96-Well Thermal Cycler, Thermo Fisher Scientific) was allowed to reach the designated temperature prior to placement of the PCR plate into the heating block. For Tm determination experiments, duplicate plates containing a fixed concentration of test compound (10 μM final) as well as vehicle control were prepared to perform a 12-point temperature gradient spanning 37-70° C. for 3 minutes. Therefore, two thermal cycler protocols were set up covering two 6-step temperature gradients ranging from 37-52° C. and 52-70° C. Plates were then allowed to cool at room temperature for 5 minutes after the heat treatment followed by transfer of 75 μL of the reaction into a 96-well white polystyrene microplate (Corning: Cat #CLS3903) and addition of 75 μL of the prepared NanoGlo mixture. Microplates were then left to shake in the dark for 5 minutes before total luminescence was measured on a SpectraMax IX3 plate reader. The luminescence value obtained at each temperature was normalized to the luminescence obtained at 37° C. and the ratio obtained was plotted against the temperature. A Boltzman Sigmoidal non-linear regression was applied to the resulting data to determine Tm values and the difference between the Tm value for a given OGG1 inhibitor relative to the DMSO vehicle control was the delta Tm."}, "hOGG1 [2]": {"target": "T1, hOGG1", "test": "Biochemical fluorescence assay to measure enzymatic activity of hOGG1 (OGG1/APEX IC50)", "parameters": "Protein His-hOGG1 (12-323) was prepared; His (N); host or cells: E. coli", "details": "1 nM OGG1+2 nM APEX+6 nM dsDNA (8-oxo-dG substrate); pH 7.5; RT 40 min; read-out: OGG1/APEX IC50", "method_in_brief": "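His-hOGG1 (12-323, E. coli) at 1 nM with 2 nM hAPE1/APEX1, preincubated 20 min RT with compound. Then 6 nM 8-oxo-dG dsDNA substrate added, 40 min at RT in Tris pH 7.5, 100 mM KCl. TAMRA fluorescence (Ex520/Em600) converted to % inhibition vs controls; IC50 from 3-parameter fit of 10-point curve.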"}},
  "data": [
    {"smiles": "COc1cc(NC(=O)[C@]2(C)CC[C@@H](N3Cc4c(C)ccc(OC)c4NC3=O)CC2)ccc1C", "note": "[Example 12, (1r,4r)-N-(3-Methoxy-4-methylphenyl)-4-(8-methoxy-5-methyl-2-oxo-1,2-dihydroquinazolin-3(4H)-yl)-1-methylcyclohexanecarboxamide]", "values": [
      {"measurement": "Kd", "setting": "hOGG1 [1]", "value": "> 1000", "unit": "nM"},
      {"measurement": "ΔTm at 10 µM", "setting": "nLucOGG1 in HeLa cells", "value": "≤ 6", "unit": "°C"}
    ]},
    {"smiles": "COc1ccc(NC(=O)[C@]2(C)CC[C@@H](N3Cc4c(C)ccc(OC)c4NC3=O)CC2)cc1C#N", "note": "(single isomer, unassigned) [Example 8, (1r,4r)-N-(3-cyano-4-methoxyphenyl)-4-(8-methoxy-5-methyl-2-oxo-1,2-dihydroquinazolin-3(4H)-yl)-1-methylcyclohexanecarboxamide]", "values": [
      {"measurement": "Kd", "setting": "hOGG1 [1]", "value": "> 1000", "unit": "nM"},
      {"measurement": "ΔTm at 10 µM", "setting": "nLucOGG1 in HeLa cells", "value": "≤ 6", "unit": "°C"}
    ]},
    {"smiles": "COc1ccc(NC(=O)[C@]2(C)CC[C@@H](N3Cc4c(C)ccc(OC)c4NC3=O)CC2)cc1C", "note": "(single isomer, unassigned) [Example 10, (1r,4r)-N-(3-methyl-4-methoxyphenyl)-4-(8-methoxy-5-methyl-2-oxo-1,2-dihydroquinazolin-3(4H)-yl)-1-methylcyclohexanecarboxamide]", "values": [
      {"measurement": "Kd", "setting": "hOGG1 [1]", "value": "> 1000", "unit": "nM"},
      {"measurement": "ΔTm at 10 µM", "setting": "nLucOGG1 in HeLa cells", "value": "≤ 6", "unit": "°C"}
    ]},
    {"smiles": "Cc1cc(NCCN(C)C)cc2c1CN([C@H]1CC[C@@H](C(=O)Nc3cc4ccccc4[nH]3)CC1)C2=O", "note": "[Example 271, (1s,4s)-4-(6-(2-(dimethylamino)ethylamino)-4-methyl-1-oxoisoindolin-2-yl)-N-(1H-indol-2-yl)cyclohexanecarboxamide]", "values": [
      {"measurement": "IC50", "setting": "hOGG1 [2]", "value": "< 100", "unit": "nM"},
      {"measurement": "Kd", "setting": "hOGG1 [1]", "value": "10 to 100", "unit": "nM"}
    ]},
    {"smiles": "Cc1cc(NCCN(C)C)cc2c1CN([C@H]1CC[C@@H](C(=O)Nc3cc4ccccc4[nH]3)CC1)C2=O", "note": "[Example 132, (1s,4s)-4-(6-((2-(Dimethylamino)ethyl)amino)-4-methyl-1-oxoisoindolin-2-yl)-N-(1H-indol-2-yl)cyclohexane-1-carboxamide]", "values": [
      {"measurement": "ΔTm at 10 µM", "setting": "nLucOGG1 in HeLa cells", "value": "> 10", "unit": "°C"}
    ]},
    {"smiles": "COc1ccc(NC(=O)[C@]2(C)CC[C@@H](N3Cc4c(C)ccc(OC)c4NC3=O)CC2)cc1Cl", "note": "(single isomer, unassigned) [Example 6, (1r,4r)-N-(3-Chloro-4-methoxyphenyl)-4-(8-methoxy-5-methyl-2-oxo-1,2-dihydroquinazolin-3(4H)-yl)-1-methylcyclohexanecarboxamide]", "values": [
      {"measurement": "Kd", "setting": "hOGG1 [1]", "value": "> 1000", "unit": "nM"},
      {"measurement": "ΔTm at 10 µM", "setting": "nLucOGG1 in HeLa cells", "value": "≤ 6", "unit": "°C"}
    ]},
    {"smiles": "COc1cc(NC(=O)[C@H]2CC[C@@H](N3Cc4c(C)cc(NCC5CCCN5)cc4C3=O)CC2)ccc1C", "note": "(some centres unmarked) [Example 194, (1s,4s)-N-(3-methoxy-4-methylphenyl)-4-(4-methyl-1-oxo-6-(pyrrolidin-2-ylmethylamino)isoindolin-2-yl)cyclohexanecarboxamide]", "values": [
      {"measurement": "IC50", "setting": "hOGG1 [2]", "value": "< 100", "unit": "nM"}
    ]},
    {"smiles": "COc1cc(NC(=O)[C@@H]2CC[C@H](N3Cc4ccccc4NC3=O)C2)ccc1C", "note": "[Example 65, (1R,3S)—N-(3-methoxy-4-methylphenyl)-3-(2-oxo-1,2-dihydroquinazolin-3(4H)-yl)cyclopentanecarboxamide]", "values": [
      {"measurement": "IC50", "setting": "hOGG1 [2]", "value": "1000 to 10000", "unit": "nM"}
    ]},
    {"smiles": "COc1cc(NC(=O)[C@H]2CC[C@H](N3Cc4c(C)cc(COC5CNC5)cc4NC3=O)CC2)ccc1C", "note": "[Example 111, (1r,4r)-4-(7-((azetidin-3-yloxy)methyl)-5-methyl-2-oxo-1,2-dihydroquinazolin-3(4H)-yl)-N-(3-methoxy-4-methylphenyl)cyclohexanecarboxamide]", "values": [
      {"measurement": "IC50", "setting": "hOGG1 [2]", "value": "> 10000", "unit": "nM"}
    ]},
    {"smiles": "C=Cc1cc(C)c2c(c1)NC(=O)N([C@H]1CC[C@@H](C(=O)Nc3ccc(C)c(OC)c3)CC1)C2", "note": "[Example 83, (1s,4s)-N-(3-methoxy-4-methylphenyl)-4-(5-methyl-2-oxo-7-vinyl-1,2-dihydroquinazolin-3(4H)-yl)cyclohexanecarboxamide]", "values": [
      {"measurement": "IC50", "setting": "hOGG1 [2]", "value": "100 to 1000", "unit": "nM"}
    ]},
    {"smiles": "COc1cc(NC(=O)[C@H]2[C@@H]3C[C@@H](N4Cc5c(Br)cccc5C4=O)C[C@@H]32)ccc1C", "note": "(single isomer, unassigned) [Example 270]", "values": [
      {"measurement": "IC50", "setting": "hOGG1 [2]", "value": "> 10000", "unit": "nM"}
    ]},
    {"smiles": "Cc1ccc(NC(=O)[C@H]2CC[C@@H](N3Cc4c(C)cccc4C3=O)CC2)cc1C", "note": "[Example 236, (1s,4s)-N-(3,4-Dimethylphenyl)-4-(4-methyl-1-oxoisoindolin-2-yl)cyclohexanecarboxamide]", "values": [
      {"measurement": "IC50", "setting": "hOGG1 [2]", "value": "1000 to 10000", "unit": "nM"}
    ]}
  ]
}
